Measured values taken from patent US20220213092A1, “BICYCLIC PYRAZOLE BRUTON'S TYROSINE KINASE INHIBITORS” (AbbVie Inc., priority 2020, published 2022).

Columns and labels:
[1] = target: T1, Full length BTK enzyme (human BTK residues 2-659) (Homo sapiens, UniProt Q06187); assay: BTK MSA with full length BTK enzyme, used for Examples 50, 51, 62 and 63; type: biochemical; settings: Examples 50, 51, 62 and 63: 1 mM ATP, 0.6 nM full length BTK enzyme, 3 hours at room temperature
T1 construct: 6His (N); Flag (N); TEV cleavage site (N); Serine (single linker residue before BTK residue 2) (N); made in house; host or cells: baculovirus (pFastBac vector)
Protocol: Kinase activities for Examples 50, 51, 62 and 63 were measured in vitro using the following electrophoretic mobility shift assay (MSA). The kinase reactions were assembled in a total volume of 20 μL in 384 well plates. To each well, 20 nL test compound, or control, in 100% dimethyl sulfoxide was spotted using Echo®, a liquid dispensing instrument (Labcyte, Indianapolis, Ind.). To each well was added: 12 μL of 1.67× Full length BTK enzyme in Master Buffer (Master Buffer components: 20 mM HEPES pH 7.4, 10 mM MgCl2, 1 mM DTT, 0.1 mM sodium orthovanadate, 10 mM beta-glycerophosphate, and 0.0075% w/v Triton x-100). Full length BTK enzyme was 6His-Flag-(TEV)-S[BTK(hu) (2-659)]*BEV, pFastBac*. [Note: this is a description of the exact amino acid sequence of the expressed BTK construct from N- to C-terminus: 6Histidines, Flag tag sequence, TEV cleavage site, Serine, human BTK residues 2-659; and BEV=expressed in baculovirus, pFastBac is the expression vector used].
Enzyme and compound/inhibitor were optionally pre-incubated. To each well was added: 8 μL of 2.5×ATP and substrate in 1× Master Buffer (1× Master Buffer as described above). The plate was incubated at room temperature for 3 hours. The reaction was terminated by adding 30 μL of 1.67× Stop Buffer (Stop Buffer components 10 mM EDTA in water), to each well. The final reaction mixture was as follows: 20 mM HEPES, pH 7.4; 0.0075% Triton X-100; 1 mM DTT; 10 mM MgCl2; 0.1 mM sodium orthovanadate; 10 mM beta-glycerophosphate; 0.1% dimethyl sulfoxide (from compound); 1 mM ATP; 1 μM (OG488-SEQ ID NO. 2-NH2) peptide substrate; and 0.6 nM BTK enzyme. […] The kinase activity for the kinases in Table 3 were measured at 3 hours incubation time, except that in the case of MAP2K1 and MAP2K2 assay, pre-activation of ERK was done for 30 min with 6 μM of ATP, and then the detection of activated ERK in the presence of compounds was done after 60 minutes of incubation.
The terminated reactions were analyzed using a 12 channel LABCHIP® 3000 microfluidic detection instrument (available from Caliper Life Sciences, Waltham, Mass.). […] As substrate and product peptides were separated, two peaks of fluorescence were observed. Change in the relative fluorescence intensity of the substrate and product peaks was the parameter measured, reflecting enzyme activity. […] Capillary electrophoregrams (RDA acquisition files) were analyzed using HTS Well Analyzer software (available from Caliper Life Sciences, Waltham, Mass.).
Activity in each sample was determined as the product to sum ratio (PSR): P/(S+P), where P was the peak height of the product peptide and S was the peak height of the substrate peptide. For each compound, enzyme activity was measured at various concentrations (12 concentrations of compound spaced by 3× dilution intervals). […]

[2] = target: T2, Phosphorylation of Y223 of BTK (Homo sapiens, UniProt Q06187); assay: Whole blood compound screening, phosphorylation of Y223 site of BTK (MSD assay); type: cell-based; settings: healthy human whole blood, 2 hours at 37° C., 3 separate donors; read-out: WB BTK-pY223 EC50
T2 construct: host or cells: healthy human whole blood, 3 donors
In short: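 Heparinized human whole blood from 3 donors treated 2 h at 37 °C with compounds (8 points, top 10 μM, 1:4 dilution, 0.2% DMSO), then lysed. BTK pY223 quantified by MSD sandwich immunoassay (anti-BTK capture, anti-pY223 detection); EC50 from concentration response.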

[3] = system: CYP3A4; assay: CYP3A4 induction assay (CYP 3A4 mRNA by qPCR in cryopreserved human hepatocytes); type: in vitro ADME; settings: CYP3A4 mRNA fold change vs vehicle, 10 μM compound
Protocol: CYP induction was evaluated in vitro by determining the expression levels of CYP 3A4 mRNA using the qPCR (quantitative polymerase chain reaction) assay. On day one, cryopreserved human hepatocytes were thawed in prewarmed (37° C.) thawing medium (cryopreserved hepatocyte recovery medium, Gibco™ CM 7000; Thermo Fisher Scientific), centrifuged (1000 g for 10 minutes) and resuspended in plating medium (Gibco™ CM3000—Williams Medium E supplemented with hepatocytes plating supplement pak-serum containing; Thermo Fisher Scientific). Cells were counted by trypan blue exclusion using a hemocytometer and adjusted to a cell density of […]. Thereafter, […] of cell suspension was aliquoted per well in a 96-well plate, resulting in 60,000 cells/well. Plates were shaken in the north-south and east-west direction during plating. Plated cells were incubated at 37° C./5% CO2 in a humidified cell culture incubator for 4-6 hours. During this time, incubation medium (Gibco™ CM4000, cell maintenance supplement pack; Thermo Fisher Scientific) was mixed with Gibco™ Geltrex™ (Thermo Fischer Scientific) at the appropriate Geltrex™ protein concentration. Following recovery, medium was removed from cells and replaced with freshly prepared incubation medium. Cells were incubated overnight in a cell culture incubator (37° C./5% CO2).
The next day the incubation medium was prepared by combining the hepatocyte maintenance supplement pack with Williams medium E. The medium was warmed to 37° C. 1000× dimethyl sulfoxide compound stocks were prepared to the desired concentrations. 10 mM compound stocks in dimethyl sulfoxide were diluted (1 μL to 1 mL CM4000; final concentration=10 μM). Overlay medium was aspirated and […] dose solution added to the desired labeled 96 well plate. Cells were returned to the humidified incubator overnight (37° C./5% CO2).
On day 3, incubation medium was warmed to 37° C., and the same process for compound preparation repeated as in day 2, i.e. 1000× dimethyl sulfoxide compound stocks were prepared to the desired concentration, diluted (1:1000) in warm incubation medium, and this freshly prepared medium was used to replace treatment medium. Cells were returned to the humidified incubator (37° C./5% CO2) overnight.
On day 4, RNA isolation was performed. Prior to RNA isolation, cell viability was assessed using presto blue reagent. 10× dilution of PrestoBlue™ reagent (Thermo Fisher Scientific) was prepared by mixing 1.4 mL PrestoBlue™ with 12.6 mL incubation medium. Medium was aspirated from cells, and 100 μL of cell viability medium (10× dilution of PrestoBlue™ reagent) added and incubated for 17 minutes. Cell viability was determined by measuring absorbance using a microplate reader (Spark® 10M Tecan Life Sciences). After this measurement, media was aspirated using a multichannel aspirator and a glass pipet to completely aspirate from each well. Plates were stored or immediately used for mRNA isolation. All surfaces were cleaned using RNase away. 2× Lysis buffer was well mixed after incubation at ambient temperature. Fresh lysis buffer was prepared by mixing 0.125 μL of 0.5 mM DTT with 4.875 μL 2× lysis buffer. 1× lysis buffer containing DTT was then prepared by adding 5 μL dilution buffer to the 2× lysis buffer and mixing thoroughly. Thereafter, cell lysates were prepared by adding 1× lysis buffer to each sample well (96-well plate). Samples were incubated for 3-6 minutes at ambient temperature while shaking (350-400 rpm) to lyse the cells. Cells were scrapped with tips, and cell lysate (80 μL) was transferred to each well of the mRNA Catcher PLUS™ plate (Thermo Fisher Scientific). mRNA Catcher PLUS™ plate containing samples was covered with adhesive plastic film plate cover and incubated at ambient temperature for 45-60 minutes for RNA hybridization.
After hybridization, lysate was aspirated from the cells. […]

[4] = target: T3, BTK (Homo sapiens, UniProt Q06187); assay: BTK kinase electrophoretic mobility shift assay (MSA); type: biochemical; settings: 50 μM ATP, 0.5 nM BTK enzyme (Nanosyn-293HEK, WT), 3 hours at 25° C.; all examples except 50, 51, 62 and 63; read-out: BTK IC50
T3 construct: purchased Nanosyn, Santa Clara, Calif; host or cells: 293HEK
T3 sequence (Q06187 whole entry): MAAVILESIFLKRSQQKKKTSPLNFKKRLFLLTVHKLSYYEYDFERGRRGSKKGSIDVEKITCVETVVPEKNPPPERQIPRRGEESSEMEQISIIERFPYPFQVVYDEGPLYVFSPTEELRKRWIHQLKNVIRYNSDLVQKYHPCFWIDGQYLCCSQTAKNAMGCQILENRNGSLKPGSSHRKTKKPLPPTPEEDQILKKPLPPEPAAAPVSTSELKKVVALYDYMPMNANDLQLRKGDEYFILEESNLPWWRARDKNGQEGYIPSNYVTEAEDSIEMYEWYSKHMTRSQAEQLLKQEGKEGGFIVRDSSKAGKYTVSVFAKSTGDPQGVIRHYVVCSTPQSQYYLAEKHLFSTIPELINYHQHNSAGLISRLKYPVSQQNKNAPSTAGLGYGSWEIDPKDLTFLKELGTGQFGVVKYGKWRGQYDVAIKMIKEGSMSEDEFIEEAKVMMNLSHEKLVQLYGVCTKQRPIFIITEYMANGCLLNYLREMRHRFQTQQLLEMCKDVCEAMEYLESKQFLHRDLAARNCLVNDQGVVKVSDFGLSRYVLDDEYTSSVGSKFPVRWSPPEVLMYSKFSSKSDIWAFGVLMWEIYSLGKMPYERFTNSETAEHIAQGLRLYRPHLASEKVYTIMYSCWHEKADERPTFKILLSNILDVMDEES

T1 sequence (Q06187 2-659): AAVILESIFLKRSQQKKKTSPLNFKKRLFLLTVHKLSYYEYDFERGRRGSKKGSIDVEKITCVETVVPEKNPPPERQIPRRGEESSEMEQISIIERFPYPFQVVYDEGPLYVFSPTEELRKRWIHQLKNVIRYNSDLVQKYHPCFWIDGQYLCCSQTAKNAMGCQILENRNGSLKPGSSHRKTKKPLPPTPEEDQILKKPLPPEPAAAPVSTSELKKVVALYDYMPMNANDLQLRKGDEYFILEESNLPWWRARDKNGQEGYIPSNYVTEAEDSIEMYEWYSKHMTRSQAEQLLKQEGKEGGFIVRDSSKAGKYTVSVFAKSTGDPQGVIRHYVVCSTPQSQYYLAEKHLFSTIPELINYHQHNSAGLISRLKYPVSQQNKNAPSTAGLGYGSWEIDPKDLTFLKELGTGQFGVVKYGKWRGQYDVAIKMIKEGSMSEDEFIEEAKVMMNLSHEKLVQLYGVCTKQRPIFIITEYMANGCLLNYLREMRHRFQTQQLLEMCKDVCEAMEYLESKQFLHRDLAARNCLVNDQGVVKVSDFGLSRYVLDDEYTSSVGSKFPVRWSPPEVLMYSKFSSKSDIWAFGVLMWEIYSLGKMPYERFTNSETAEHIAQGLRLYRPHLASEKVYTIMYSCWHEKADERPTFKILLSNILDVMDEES
T2 sequence (Q06187 whole entry): as the sequence (Q06187 whole entry) above

SMILES | IC50 [1] [µM] | EC50 [2] [µM] | CYP3A4 Ind. fold [3] [fold] | IC50 [4] [µM]
C=CC(=O)N1CC(N2CCNc3c2nn(-c2ccc(Oc4ccc(F)c(F)c4)cc2)c3C(N)=O)C1 [Example 63, 2-[4-(3,4-difluorophenoxy)phenyl]-7-[1-(prop-2-enoyl)azetidin-3-yl]-4,5,6,7-tetrahydro-2H-pyrazolo[3,4-b]pyrazine-3-carboxamide] | 0.0203 | 0.0194 | – | –
COC(=O)/C=C/C(=O)N1CCN(C2CCNc3c2nn(-c2ccc(Oc4ccccc4)cc2)c3C(N)=O)CC1 (stereo not shown) [Example 51, methyl (2E)-4-{4-[3-carbamoyl-2-(4-phenoxyphenyl)-4,5,6,7-tetrahydro-2H-pyrazolo[4,3-b]pyridin-7-yl]piperazin-1-yl}-4-oxobut-2-enoate] | 0.507 | – | – | –
C=CC(=O)N1CCN([C@H]2CCNc3c2nn(-c2ccc(Oc4cc(F)cc(F)c4)cc2)c3C(N)=O)CC1 [Example 59, (7S)-2-[4-(3,5-difluorophenoxy)phenyl]-7-[4-(prop-2-enoyl)piperazin-1-yl]-4,5,6,7-tetrahydro-2H-pyrazolo[4,3-b]pyridine-3-carboxamide] | – | 0.117 | 0.85 | 0.00217
CCO/C=C/C(=O)N1CCN([C@@H]2CCNc3c2nn(-c2ccc(Oc4ccccc4)cc2)c3C(N)=O)CC1 [Example 50, (7R)-7-{4-[(2E)-3-ethoxyprop-2-enoyl]piperazin-1-yl}-2-(4-phenoxyphenyl)-4,5,6,7-tetrahydro-2H-pyrazolo[4,3-b]pyridine-3-carboxamide] | 0.0386 | – | – | –
C=CC(=O)N1CC(N2CCNc3c2nn(-c2ccc(Oc4cccc(F)c4)cc2)c3C(N)=O)C1 [Example 62, 2-[4-(3-fluorophenoxy)phenyl]-7-[1-(prop-2-enoyl)azetidin-3-yl]-4,5,6,7-tetrahydro-2H-pyrazolo[3,4-b]pyrazine-3-carboxamide] | 0.0062 | 0.00775 | – | –
C=CC(=O)N1CCN([C@@H]2CCNc3c2nn(-c2ccc(Oc4cc(F)cc(F)c4)cc2)c3C(N)=O)CC1 [Example 58, (7R)-2-[4-(3,5-difluorophenoxy)phenyl]-7-[4-(prop-2-enoyl)piperazin-1-yl]-4,5,6,7-tetrahydro-2H-pyrazolo[4,3-b]pyridine-3-carboxamide] | – | – | 1.58 | 0.0775
C=CC(=O)N1C2CC1CN(C1CCNc3c1nn(-c1ccc(Oc4ccccc4)cc1)c3C(N)=O)C2 (stereo not shown) [Example 45, 2-(4-phenoxyphenyl)-7-[6-(prop-2-enoyl)-3,6-diazabicyclo[3.1.1]heptan-3-yl]-4,5,6,7-tetrahydro-2H-pyrazolo[4,3-b]pyridine-3-carboxamide] | – | – | 25.40 | 0.00233
